Measured values taken from PubChem BioAssay (NCI).
“And” between values parts separate entries of the source, which are not always exact repeats. Identical values can stand only once.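 Cultured in 96-well plates, cells were exposed to test compound for 48 hours across five concentrations. GI50: concentration for 50% inhibition of growth. The concentration for full growth arrest is given as TGI.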

Assays:
Assay in all cases: inhibition of tumour cell growth, NCI panel, 48 h
XF 498 CNS = system: XF 498 CNS
KM20L2 colon = system: KM20L2 colon
DMS 273 small cell lung = system: DMS 273 small cell lung
SNB-78 CNS = system: SNB-78 CNS
DMS 114 small cell lung = system: DMS 114 small cell lung
M19-MEL melanoma = system: M19-MEL melanoma
HOP-18 NSCLC = system: HOP-18 NSCLC
MDA-N = system: MDA-N
RXF-631 renal = system: RXF-631 renal

| SMILES | TGI (XF 498 CNS) [µM] | TGI (KM20L2 colon) | TGI (DMS 273 small cell lung) [µM] | TGI (SNB-78 CNS) [µM] | TGI (DMS 114 small cell lung) | TGI (M19-MEL melanoma) [µM] | TGI (HOP-18 NSCLC) [µM] | TGI (MDA-N) [µM] | TGI (RXF-631 renal) [µM] | further results |
| --- | --- | --- | --- | --- | --- | --- | --- | --- | --- | --- |
| CSC(C1c2ccccc2N(c2ccc(C)cc2)C2=NC(=O)N(C)C(=O)C21Cl)S(=O)(=O)c1ccc(C)cc1 (stereo not drawn) | 65.2 | 48.4 µM | 47.9 | 80.1 | 49.8 µM | 69.2 |  |  |  |  |
| O=C1CCC2(c3ccc(F)cc3)Nc3cc(Cl)ccc3N12 (stereo not drawn) | 86.2 | > 100 µM | > 100 | > 100 | > 100 µM | > 100 | > 100 |  |  |  |
| CC(C)(CC(=O)Nc1ccccc1)C(=O)O |  |  |  |  |  |  |  | > 100 |  |  |
| OCC(O)CC[CH2][Sn]([Br])([c]1ccccc1)[c]1ccccc1 (stereo not drawn) | > 100 | > 100 µM | > 100 | > 100 |  | > 100 | > 100 |  |  | GI50 (XF 498 CNS): > 100 µM; GI50 (KM20L2 colon): > 100 µM; GI50 (DMS 273 small cell lung): > 100 µM; GI50 (SNB-78 CNS): > 100 µM; GI50 (M19-MEL melanoma): > 100 µM; GI50 (HOP-18 NSCLC): > 100 µM |
| CCOC(=O)[C]1([Bi]([CH3])[CH3])N=NC(C(=O)OC)=C1C(=O)OC (stereo not drawn) |  |  | 59.1 | > 100 | 40 µM | 32.5 | 31 |  | 31.4 | GI50 (RXF-631 renal): 17.2 µM; GI50 (DMS 273 small cell lung): 22.5 µM; GI50 (SNB-78 CNS): 27.4 µM; GI50 (DMS 114 small cell lung): 20 µM; GI50 (M19-MEL melanoma): 17.6 µM; GI50 (HOP-18 NSCLC): 17.3 µM |
| COC(=O)C1Cc2c(n(Cc3ccccc3)c3ccccc23)C(CCC(=O)O)N1C(C)C (stereo not drawn) |  | > 100 µM | > 100 | > 100 | > 100 µM | > 100 | > 100 |  | > 100 |  |
| COC1/C=C\C=C(/C)C(=O)NC2=CC(=O)C(=O)C(=C2O)CC(C)CC(OC)C(O)C(C)/C=C(\C)C1OC(N)=O (stereo not drawn) |  |  |  |  |  |  |  | 12.2 |  |  |
| O=C(/C=C/c1c(O)ccc2ccccc12)c1cccc(O)c1 | > 100 | > 100 µM | > 100 | > 100 | > 77.3 µM | 33.3 | > 86.8 |  |  |  |
| O=C(O)CNS(=O)(=O)c1ccc(NCc2ccccc2)cc1 | > 100 | > 100 µM | > 100 | > 100 | > 100 µM | > 100 | > 100 |  |  |  |
| COc1ccc(-c2cc(=O)c3ccc(O)cc3o2)cc1OC |  |  |  |  |  |  |  | > 100 |  |  |
| COc1ccc(/C=C/c2nccc3ccccc23)cc1OC |  |  |  |  |  |  |  | > 10 |  |  |
| CCOC(=O)C1=C(OC(OCC)C(CC)[Se]c2ccccc2)CCCC1 (stereo not drawn) | 46.5 | 37.3 µM | 29.2 | > 100 |  | 33 | 86.4 |  | 27.9 |  |
| N#Cc1cc([N+](=O)[O-])ccc1NC(=O)C(=O)Nc1n[nH]c(N)n1 | > 100 | > 100 µM | > 100 | > 100 | > 100 µM | > 100 |  |  | > 100 |  |
| CC[CH2][Sn]([CH2]CC)([O]C(=O)c1cccnc1SC)[O][Sn]([CH2]CC)([CH2]CC)[O]C(=O)c1cccnc1SC | 0.296 | 2.11 µM | 1.69 | 1.14 | 0.222 µM | 0.337 | 1.81 | 2.52 |  | GI50 (XF 498 CNS): 0.159 µM; GI50 (MDA-N): 1.27 µM; GI50 (KM20L2 colon): 0.775 µM; GI50 (DMS 273 small cell lung): 0.367 µM; GI50 (SNB-78 CNS): 0.138 µM; GI50 (DMS 114 small cell lung): 0.0726 µM; GI50 (M19-MEL melanoma): 0.0833 µM; GI50 (HOP-18 NSCLC): 0.689 µM |
| COC12C=C(C)C(CC1)CC2C(=O)O (stereo not drawn) | > 100 | > 100 µM | > 100 | > 100 |  | > 100 | > 100 |  |  |  |
| CC(=O)CNC(=O)OC(C)(C)C | > 100 | > 100 µM | > 100 | > 100 | > 100 µM | > 100 |  |  |  |  |
| O=C1C2c3[nH]c4ccccc4c3C3CCCCCCC3C2C(=O)N1c1ccccc1 (stereo not drawn) | 10.7 |  | 29.8 | 32.4 | 17.5 µM | 37.2 |  |  | 17.6 |  |
| CC[C@@H]1CN(C)[C@H]2Cc3c([nH]c4ccccc34)C(=O)C[C@H]1C2C(=O)OC (stereo partly drawn) |  |  |  |  |  |  |  | > 100 |  |  |
| C/C(CC(=O)Nc1cc(Cl)c(Cl)cc1Cl)=N\NC(N)=O | > 100 | > 100 µM | > 100 |  | > 100 µM | > 100 |  |  | > 100 |  |
| CCc1ccc(/C=C\c2cc(OC)c(OC)c(OC)c2)cc1 |  | 0.125 µM and 0.032 µM | 0.994 | > 100 | 0.228 µM and 0.057 µM | > 100 |  | 0.00395 |  | GI50 (KM20L2 colon): 0.0164 µM; GI50 (SNB-78 CNS): 0.0224 µM; GI50 (DMS 114 small cell lung): 0.0156 µM; GI50 (M19-MEL melanoma): 0.0392 µM |
| COc1ccc(-c2cc(=O)c3c(OC)c(OC)c(OC)cc3o2)cc1 |  |  |  |  |  |  |  | > 100 |  |  |
| COC(=O)c1c/c(=N\NC(=O)CC(=O)Nc2ccccc2OC)c2ccccc2o1 |  | > 100 µM | > 100 | > 100 | > 100 µM | > 100 | > 100 |  |  |  |

| SMILES | TGI (XF 498 CNS) [µM] | TGI (KM20L2 colon) | TGI (DMS 273 small cell lung) [µM] | TGI (SNB-78 CNS) [µM] | TGI (DMS 114 small cell lung) | TGI (M19-MEL melanoma) [µM] | TGI (HOP-18 NSCLC) [µM] | TGI (MDA-N) [µM] | TGI (RXF-631 renal) [µM] | further results |
| --- | --- | --- | --- | --- | --- | --- | --- | --- | --- | --- |
| COc1ccc(NC2=CC(=O)C(=O)c3ccccc32)nn1 |  |  |  |  |  |  |  | 1.16 |  |  |
| O=C1/C(=C/c2ccccc2)CNC/C1=C\c1ccccc1 | 6.41 | 3.09 µM | 2 | 41.8 | 8.36 µM | 2.72 | 22.9 |  | 13 |  |
| C[C@]12CC[C@H]3[C@@H](CC=C4C[C@@H](O)CC[C@@]43C)[C@@H]1CC[C@@H]2N(CCO)CCO |  |  |  |  |  |  |  | > 100 |  |  |
| CCCCN=C(NC#N)NCCCC | > 100 | > 100 µM | > 100 | > 100 | > 100 µM | > 100 | > 100 |  | > 100 |  |
| O=C(c1ccccc1)c1nnc(C(=O)c2ccccc2)nn1 |  | > 344 µM | > 344 | > 344 |  | > 344 | > 344 |  |  |  |
| Cc1cccc(C)c1NC(=O)C(=O)C1C(=O)NC(=O)NC1=O | > 100 | > 100 µM | > 100 | > 100 | > 100 µM | > 100 | > 100 |  | > 100 |  |
| O/N=C/C1c2ccccc2-c2ccccc21 |  |  |  |  |  |  |  | 31.9 |  |  |
| Cc1cc2c(cc1C)[n+](=O)c(C(=O)C/C(=N/NC(=O)CC#N)C(=O)Nc1ccccc1C(F)(F)F)c(C)n2[O-] | > 100 | > 100 µM | > 100 |  | > 100 µM | > 100 | > 100 |  | 33.3 |  |
| Cn1c(=O)c2[nH]c(SCc3ccccn3)nc2n(C)c1=S |  |  |  |  |  |  |  | > 100 |  |  |
| COC(=O)/C(=N/NC(=O)C[N+](C)(C)C)C(C(=O)OC)C(=O)C(=O)Nc1ccc(F)cc1 (stereo not drawn) |  | > 100 µM | > 100 | > 100 | > 100 µM | > 100 | > 100 |  | > 100 |  |
| O=C1CCC(=O)N2CCCCN12 |  | > 100 µM | > 100 | > 100 | > 100 µM | > 100 | > 100 |  | > 100 |  |
| CCC[CH2][Sn]1([CH2]CCC)[O]Cc2nc(C)ccc2[O]1 | 7.8 | 23.6 µM | 22.9 | 6.39 | 9.3 µM | 19.2 |  |  |  | GI50 (XF 498 CNS): 2.34 µM; GI50 (KM20L2 colon): 10.9 µM; GI50 (DMS 273 small cell lung): 11 µM; GI50 (SNB-78 CNS): 2.38 µM; GI50 (DMS 114 small cell lung): 3.07 µM; GI50 (M19-MEL melanoma): 4.49 µM |
| Brc1cccc(C=NC23CC4CC(CC(C4)C2)C3)c1 | > 100 | > 100 µM | > 100 | > 100 | > 100 µM | > 100 | > 100 |  |  |  |
| Cc1ccc2c(c1)[n+]([O-])c(N)n[n+]2[O-] |  |  |  |  |  |  |  | > 100 |  |  |
| COc1ccc(/C=C/CN(C)CCc2ccccc2)cc1OC |  | > 100 µM | > 100 | > 100 | > 100 µM | > 100 |  |  |  |  |
| O=c1c2cc([N+](=O)[O-])ccc2sc2ccsc12 | > 100 | > 100 µM |  | > 100 | > 100 µM | > 100 | > 100 |  | > 100 |  |
| [Cl-].[Dy+3].[O-]/N=C(\c1ccccc1)c1ccccn1.[O-]/N=C(\c1ccccc1)c1ccccn1.[O-]/N=C(\c1ccccc1)c1ccccn1 |  | > 100 µM | > 100 |  | 77.6 µM | 94.6 |  |  |  | GI50 (KM20L2 colon): 42 µM; GI50 (DMS 273 small cell lung): 29.8 µM; GI50 (DMS 114 small cell lung): 24.6 µM; GI50 (M19-MEL melanoma): 31.3 µM |
| O=C(/N=N/C(=O)OCc1ccccc1)OCc1ccccc1 | > 100 | > 100 µM | > 100 | > 100 | > 100 µM | > 100 | > 100 |  | > 100 |  |
| CC(=O)OCCN1c2ccccc2Sc2cnccc21 |  |  |  |  |  |  |  | > 10 |  |  |
| CCC(C)c1c(Cl)nc(Cl)nc1Cl (stereo not drawn) |  |  |  |  |  |  |  | 23.8 |  |  |
| CCC[CH2][Sn]([CH2]CCC)([O]C(=O)c1cccnc1SC)[O]C(=O)c1cccnc1SC | 2.5 | 3.51 µM | 2.26 | 1.52 | 0.829 µM | 1.57 | 2.8 |  |  | GI50 (XF 498 CNS): 1.25 µM; GI50 (KM20L2 colon): 1.7 µM; GI50 (DMS 273 small cell lung): 1.07 µM; GI50 (SNB-78 CNS): 0.0893 µM; GI50 (DMS 114 small cell lung): 0.128 µM; GI50 (M19-MEL melanoma): 0.36 µM; GI50 (HOP-18 NSCLC): 1.48 µM |
| CC(C)(C)C1C=C(Sc2ccccc2)C(=O)O1 (stereo not drawn) |  | > 100 µM | > 100 | > 100 | > 100 µM | > 100 | > 100 |  |  |  |
